Test results reported in patent US20250145598A1, “ACID CERAMIDASE INHIBITORS AND USES THEREOF” (The Regents of the University of California, priority 2021, published 2025).

Molecular target: T1, Acid ceramidase (Homo sapiens, UniProt Q13510)
T1 sequence (Q13510 22-395): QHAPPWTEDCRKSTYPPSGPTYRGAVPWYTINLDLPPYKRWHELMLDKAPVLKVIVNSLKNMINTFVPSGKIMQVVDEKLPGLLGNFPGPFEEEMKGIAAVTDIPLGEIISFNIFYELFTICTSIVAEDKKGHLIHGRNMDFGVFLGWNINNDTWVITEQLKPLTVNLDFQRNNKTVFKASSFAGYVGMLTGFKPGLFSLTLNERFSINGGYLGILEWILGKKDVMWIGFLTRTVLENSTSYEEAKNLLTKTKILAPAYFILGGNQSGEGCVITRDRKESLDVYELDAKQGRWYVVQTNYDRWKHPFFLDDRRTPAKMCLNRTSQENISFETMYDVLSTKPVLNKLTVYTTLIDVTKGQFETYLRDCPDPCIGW
Test: Acid ceramidase assay (AC in vitro IC50)
Type: biochemical
Conditions: Acid ceramidase assay data of example compounds

IC50 [nM] | Compound
< 300 | CS(=O)(=O)c1ccc(C(CO)Oc2ccc(-c3cn(C(=O)NCC4CCN(c5ccccc5)C4)cn3)cc2)cc1 (stereo not drawn) [AC2020601-0428, 4-(4-(2-hydroxy-1-(4-(methylsulfonyl)phenyl)ethoxy)phenyl)-N-((1-phenylpyrrolidin-3-yl)methyl)-1H-imidazole-1-carboxamide]
< 300 | CCS(=O)(=O)c1ccc(COc2ccc(-c3cn(C(=O)NCC4CCN(c5ccccc5)C4)cn3)cc2)c(C#N)c1 (stereo not drawn) [AC2020601-0430, 4-(4-((2-cyano-4-(ethylsulfonyl)benzyl)oxy)phenyl)-N-((1-phenylpyrrolidin-3-yl)methyl)-1H-imidazole-1-carboxamide]
< 300 | CCS(=O)(=O)c1ccc(COc2ccc(-c3cn(C(=O)NCC4CCN(c5ccccc5)C4)cn3)cc2)c(C(N)=O)c1 (stereo not drawn) [AC2020601-0431, 4-(4-(2-carbamoyl-4-(ethylsulfonyl)benzyloxy)phenyl)-N-((1-phenylpyrrolidin-3-yl)methyl)-1H-imidazole-1-carboxamide]
< 300 | CN1CCN(c2cccc(COc3ccc(-c4cn(C(=O)NCC5CCN(c6ccccc6)C5)cn4)cc3)c2)CC1=O (stereo not drawn) [AC2020601-0434, 4-(4-(3-(4-methyl-3-oxopiperazin-1-yl)benzyloxy)phenyl)-N-((1-phenylpyrrolidin-3-yl)methyl)-1H-imidazole-1-carboxamide]
< 300 | O=C(Nc1ccc(COc2ccc(-c3cn(C(=O)NCC4CCN(c5ccccc5)C4)cn3)cc2)cc1)C1CC1 (stereo not drawn) [AC2020601-0437, 4-(4-((4-(cyclopropanecarboxamido)benzyl)oxy)phenyl)-N-((1-phenylpyrrolidin-3-yl)methyl)-1H-imidazole-1-carboxamide]
< 300 | NC(=O)c1cccnc1COc1ccc(-c2cn(C(=O)NCC3CCN(c4ccccc4)C3)cn2)cc1 (stereo not drawn) [AC2020601-0438, 2-((4-(1-(((1-phenylpyrrolidin-3-yl)methyl)carbamoyl)-1H-imidazol-4-yl)phenoxy)methyl)nicotinamide]
< 300 | O=C(NCC1CCN(c2ccccc2)C1)n1cnc(-c2ccc(OC3CCc4cc(F)ccc43)cc2)c1 (stereo not drawn) [AC2020601-0439, 4-(4-((5-fluoro-2,3-dihydro-1H-inden-1-yl)oxy)phenyl)-N-((1-phenylpyrrolidin-3-yl)methyl)-1H-imidazole-1-carboxamide]
< 300 | CS(=O)(=O)c1ccc(COc2ccc(-c3cn(C(=O)NCC4CC(=O)N(c5ccccc5)C4)cn3)cc2)cc1 (stereo not drawn) [AC2020601-0443, 4-(4-((4-(methylsulfonyl)benzyl)oxy)phenyl)-N-((5-oxo-1-phenylpyrrolidin-3-yl)methyl)-1H-imidazole-1-carboxamide]
< 300 | CS(=O)(=O)c1ccc(COc2ccc(-c3cn(C(=O)NCC4CCN(c5ccccc5)C4)cn3)cc2)cn1 (stereo not drawn) [AC2020601-0444, 4-(4-((6-(methylsulfonyl)pyridin-3-yl)methoxy)phenyl)-N-((1-phenylpyrrolidin-3-yl)methyl)-1H-imidazole-1-carboxamide]
< 300 | CS(=O)(=O)c1ccc(COc2ccc(-c3cn(C(=O)NCC4CCN(c5ccccc5)C4)cn3)cc2)nc1 (stereo not drawn) [AC2020601-0445, 4-(4-((5-(methylsulfonyl)pyridin-2-yl)methoxy)phenyl)-N-((1-phenylpyrrolidin-3-yl)methyl)-1H-imidazole-1-carboxamide]
< 300 | Cn1cnc(COc2ccc(-c3cn(C(=O)NCC4CCN(c5ccccc5)C4)cn3)cc2)n1 (stereo not drawn) [AC2020601-0447, 4-(4-((1-methyl-1H-1,2,4-triazol-3-yl)methoxy)phenyl)-N-((1-phenylpyrrolidin-3-yl)methyl)-1H-imidazole-1-carboxamide]
< 300 | CC(C)n1ccc(COc2ccc(-c3cn(C(=O)NCC4CCN(c5ccccc5)C4)cn3)cc2)n1 (stereo not drawn) [AC2020601-0448, 4-(4-((1-isopropyl-1H-pyrazol-3-yl)methoxy)phenyl)-N-((1-phenylpyrrolidin-3-yl)methyl)-1H-imidazole-1-carboxamide]
< 300 | CN1CCN(c2cccc(COc3ccc(-c4cn(C(=O)NCC5CN(c6ccccc6)C5)cn4)cc3)c2)CC1=O [AC2020601-0449, 4-(4-(3-(4-methyl-3-oxopiperazin-1-yl)benzyloxy)phenyl)-N-((1-phenylazetidin-3-yl)methyl)-1H-imidazole-1-carboxamide]
< 300 | N#Cc1cccnc1COc1ccc(-c2cn(C(=O)NCC3CCN(c4ccccc4)C3)cn2)cc1 (stereo not drawn) [AC2020601-0451, 4-(4-((3-cyanopyridin-2-yl)methoxy)phenyl)-N-((1-phenylpyrrolidin-3-yl)methyl)-1H-imidazole-1-carboxamide]
< 300 | CS(=N)(=O)c1ccc(COc2ccc(-c3cn(C(=O)NCC4CCN(c5ccccc5)C4)cn3)cc2)cc1 (stereo not drawn) [AC2020601-0452, 4-(4-((4-(S-methylsulfonimidoyl)benzyl)oxy)phenyl)-N-((1-phenylpyrrolidin-3-yl)methyl)-1H-imidazole-1-carboxamide]
< 300 | CS(=O)(=O)c1ccc(COc2ccccc2-c2cn(C(=O)NCC3CN(c4ccccc4)C3)cn2)cc1 [AC2020601-0456, 4-(2-(4-(methylsulfonyl)benzyloxy)phenyl)-N-((1-phenylazetidin-3-yl)methyl)-1H-imidazole-1-carboxamide]
< 300 | O=C(NCC1CCN(c2ccccc2)C1)n1cnc(-c2ccc(OCc3cccnn3)cc2)c1 (stereo not drawn) [AC2020601-0472, N-((1-phenylpyrrolidin-3-yl)methyl)-4-(4-(pyridazin-3-ylmethoxy)phenyl)-1H-imidazole-1-carboxamide]
< 300 | CS(=O)(=O)c1ncc(COc2ccc(-c3cn(C(=O)NCC4CCN(c5ccccc5)C4)cn3)cc2)cn1 (stereo not drawn) [AC2020601-0477, 4-(4-((2-(methylsulfonyl)pyrimidin-5-yl)methoxy)phenyl)-N-((1-phenylpyrrolidin-3-yl)methyl)-1H-imidazole-1-carboxamide]
< 300 | CC(C)n1cncc1COc1ccc(-c2cn(C(=O)NCC3CCN(c4ccccc4)C3)cn2)cc1 (stereo not drawn) [AC2020601-0478, 4-(4-((1-isopropyl-1H-imidazol-5-yl)methoxy)phenyl)-N-((1-phenylpyrrolidin-3-yl)methyl)-1H-imidazole-1-carboxamide]
< 300 | Cn1nc(C(F)(F)F)cc1COc1ccc(-c2cn(C(=O)NCC3CCN(c4ccccc4)C3)cn2)cc1 (stereo not drawn) [AC2020601-0481, 4-(4-((1-methyl-3-(trifluoromethyl)-1H-pyrazol-5-yl)methoxy)phenyl)-N-((1-phenylpyrrolidin-3-yl)methyl)-1H-imidazole-1-carboxamide]
< 300 | CCS(=O)(=O)c1ccc(COc2ccc(-c3cn(C(=O)NCC4CCN(c5ccccc5)C4)cn3)cc2)nn1 (stereo not drawn) [AC2020601-0482, 4-(4-((6-(ethylsulfonyl)pyridazin-3-yl)methoxy)phenyl)-N-((1-phenylpyrrolidin-3-yl)methyl)-1H-imidazole-1-carboxamide]
< 300 | Cn1ncc(COc2ccc(-c3cn(C(=O)NCC4CCN(c5ccccc5)C4)cn3)cc2)n1 (stereo not drawn) [AC2020601-0488, 4-(4-((2-methyl-2H-1,2,3-triazol-4-yl)methoxy)phenyl)-N-((1-phenylpyrrolidin-3-yl)methyl)-1H-imidazole-1-carboxamide]
< 300 | Cn1cc(COc2ccc(-c3cn(C(=O)NCC4CCN(c5ccccc5)C4)cn3)cc2)nn1 (stereo not drawn) [AC2020601-0489, 4-(4-((1-methyl-1H-1,2,3-triazol-4-yl)methoxy)phenyl)-N-((1-phenylpyrrolidin-3-yl)methyl)-1H-imidazole-1-carboxamide]
< 300 | Cc1nnc(COc2ccc(-c3cn(C(=O)NCC4CCN(c5ccccc5)C4)cn3)cc2)o1 (stereo not drawn) [AC2020601-0491, 4-(4-((5-methyl-1,3,4-oxadiazol-2-yl)methoxy)phenyl)-N-((1-phenylpyrrolidin-3-yl)methyl)-1H-imidazole-1-carboxamide]
< 300 | CS(=O)(=O)c1ccc(COc2ccc(-c3cn(C(=O)NCC4CCN(c5cccc(C#N)c5)C4)cn3)cc2)cc1 (stereo not drawn) [AC2020601-0494, N-((1-(3-cyanophenyl)pyrrolidin-3-yl)methyl)-4-(4-(4-(methylsulfonyl)benzyloxy)phenyl)-1H-imidazole-1-carboxamide]
< 300 | CS(=O)(=O)c1ccc(COc2ccc(-c3cn(C(=O)NCC4CCN(c5cc(F)ccc5F)C4)cn3)cc2)cc1 (stereo not drawn) [AC2020601-0496, N-((1-(2,5-difluorophenyl)pyrrolidin-3-yl)methyl)-4-(4-(4-(methylsulfonyl)benzyloxy)phenyl)-1H-imidazole-1-carboxamide]
< 300 | CS(=O)(=O)c1ccc(COc2ccc(-c3cn(C(=O)NCC4CCN(c5ccc(F)cn5)C4)cn3)cc2)cc1 (stereo not drawn) [AC2020601-0497, N-((1-(5-fluoropyridin-2-yl)pyrrolidin-3-yl)methyl)-4-(4-((4-(methylsulfonyl)benzyl)oxy)phenyl)-1H-imidazole-1-carboxamide]
< 300 | CS(=O)(=O)c1ccc(COc2ccc(-c3cn(C(=O)NCC4CCN(c5cccc(C(F)(F)F)c5)C4)cn3)cc2)cc1 (stereo not drawn) [AC2020601-0498, 4-(4-((4-(methylsulfonyl)benzyl)oxy)phenyl)-N-((1-(3-(trifluoromethyl)phenyl)pyrrolidin-3-yl)methyl)-1H-imidazole-1-carboxamide]
< 300 | Cc1ncc(N2CCC(CNC(=O)n3cnc(-c4ccc(OCc5ccc(S(C)(=O)=O)cc5)cc4)c3)C2)s1 (stereo not drawn) [AC2020601-0499, 4-(4-((4-(methylsulfonyl)benzyl)oxy)phenyl)-N-((1-(2-methylthiazol-5-yl)pyrrolidin-3-yl)methyl)-1H-imidazole-1-carboxamide]
< 300 | CS(=O)(=O)c1ccc(C(=O)Oc2ccc(-c3cn(C(=O)NCC4CCN(c5ccccc5)C4)cn3)cc2)cc1 (stereo not drawn) [AC2020601-0501, 4-(1-((1-phenylpyrrolidin-3-yl)methylcarbamoyl)-1H-imidazol-4-yl)phenyl 4-(methylsulfonyl)benzoate]
